Several values for one entry are separate records, joined by “and”; a condition that tells them apart may be missing. Identical values can stand only once. Like-named read-outs stand apart in the source and are kept apart here.
Tested on: 60 cancer cell lines (NCI 60 cancer cell line series)
Test: NCI-DTP in vitro cancer screen, sulforhodamine B (SRB) growth inhibition, 48 hour exposure
Format: cell-based, human
Description: Cancer Cell Line Preparation. Sixty cancer cell lines were obtained from the National Cancer Institute Developmental Therapeutics Program (NCI-DTP). Procedures for growing cells and testing compounds have been described previously (Scudiero et al., Cancer Res. 1988, 48:4827-4833; Stinson et al., Anticancer Res.; Myers et al., Electrophoresis 1997, 18:647-653). Cells are plated on day 0 at a density individualized for each cell line so that they will generally be sub-confluent at the end of the assay period. On day 1, a compound is added in the format for a duplicate-well, 5-dose, ten-fold interval dose response study.
No-drug, no-cell and no-growth controls are included. On day 3 the cells are processed for staining with sulforhodamine B (SRB), which reflects the amount of cell mass present at the end of a 48 hour exposure to the test agent. From dose response curves based on the SRB data, various parameters can be determined. The one used in the present study is the G15o, defined as the concentration of compound required to inhibit growth of the cell line by 50%. More precisely, the quantity used in the calculation to be described is the potency measure -log{GI50}.
Activity database (A). Table IA, consisting of the growth inhibition (GI5o) values for the 60 cell lines and 24 compounds, was created from the NCI-DTP in vitro cancer screen database. This subset of compounds was selected from the larger 23,000 compound database available from the DTP. The compounds were selected on the basis of their known mechanism of action and chemical structure. The average potency—log{GI50} was extracted from the comma-delimited text files available through the Web at http://www.nci.nih.gov/intra/lmp/jnwbio.htmrl. Subsequently, these log{GI5o} values were inspected manually and classified as indicating either Low, Medium or High sensitivity to each compound.

COc1cccc2c1C(=O)c1c(O)c3c(c(O)c1C2=O)C[C@@](O)(C(=O)CO)C[C@@H]3O[C@H]1C[C@H](N)[C@H](O)[C@H](C)O1 [Adrlamycin]
3: classification of cell line as Low(1), Medium(2) or High(3) sensitivity to compound (Breast MCF7(I) (CL5001))
2: classification of cell line as Low(1), Medium(2) or High(3) sensitivity to compound (Breast BT-549 (CL5013)) | classification of cell line as Low(1), Medium(2) or High(3) sensitivity to compound (Breast HS-578T CL5006) | classification of cell line as Low(1), Medium(2) or High(3) sensitivity to compound (Breast MDA-MB-231 CL5005) | classification of cell line as Low(1), Medium(2) or High(3) sensitivity to compound (Breast MDA-MB-435 (CL5011)) | classification of cell line as Low(1), Medium(2) or High(3) sensitivity to compound (Breast MDA-N CL5012) | classification of cell line as Low(1), Medium(2) or High(3) sensitivity to compound (Breast T-47D (CL5014)) | classification of cell line as Low(1), Medium(2) or High(3) sensitivity to compound (CNS SF-268 CL12014) | classification of cell line as Low(1), Medium(2) or High(3) sensitivity to compound (CNS SF-295 CL12015)
1: classification of cell line as Low(1), Medium(2) or High(3) sensitivity to compound (Breast MCF7/ADRr (CL5002))

Nc1ccn([C@@H]2O[C@H](CO)[C@@H](O)[C@@H]2O)c(=O)n1 [AraC]
2: sensitivity class NSCLC NCI-H332M CL1017 | sensitivity class NSCLC NCI-H522 CL1003 | sensitivity class Ovarian OVCAR-5 CL6003 | sensitivity class Ovarian OVCAR-8 CL6005 | sensitivity class Ovarian SK-OV-3 CL6011 | sensitivity class Prostate PC-3(I) CL11001 | sensitivity class Renal 786-O CL9018 | sensitivity class Renal A498 CL9013 | sensitivity class Renal ACHN CL9023 | sensitivity class Renal CAKI-1 CL9015 | sensitivity class Renal RXF-393 CL9016 | sensitivity class Renal SN12C CL9008 | sensitivity class Renal UO-31 CL9004
17: 1 # of Low
2 and 3 and 1: classification of cell line as Low(1), Medium(2) or High(3) sensitivity to compound
2 and 1 and 3: sensitivity class of the cell line to the compound (1 Low, 2 Medium, 3 High)
10: 3 # of High
3: sensitivity class NSCLC NCI-H23(I) CL1001 | sensitivity class NSCLC NCI-H460 CL1021
1: sensitivity class Ovarian IGROV1 CL6010 | sensitivity class Ovarian OVCAR-3 CL6001 | sensitivity class Ovarian OVCAR-4 CL6002 | sensitivity class Prostate DU-145 CL11003 | sensitivity class Renal TK10 CL9024
33: 2 # of Medium

O=NN(CCCl)C(=O)NCCCl [BCNU]
3: sensitivity class NSCLC NCI-H522 CL1003 | sensitivity class Renal 786-O CL9018
2: sensitivity class NSCLC NCI-H23(I) CL1001 | sensitivity class NSCLC NCI-H460 CL1021 | sensitivity class Ovarian IGROV1 CL6010 | sensitivity class Ovarian OVCAR-3 CL6001 | sensitivity class Ovarian OVCAR-4 CL6002 | sensitivity class Ovarian OVCAR-8 CL6005 | sensitivity class Prostate PC-3(I) CL11001 | sensitivity class Renal ACHN CL9023 | sensitivity class Renal CAKI-1 CL9015 | sensitivity class Renal RXF-393 CL9016 | sensitivity class Renal SN12C CL9008 | sensitivity class Renal TK10 CL9024
13: 1 # of Low
1: sensitivity class NSCLC NCI-H332M CL1017 | sensitivity class Ovarian OVCAR-5 CL6003 | sensitivity class Ovarian SK-OV-3 CL6011 | sensitivity class Prostate DU-145 CL11003 | sensitivity class Renal A498 CL9013 | sensitivity class Renal UO-31 CL9004
37: 2 # of Medium
10: 3 # of High

— patent US20020051978A1, “Methods and compositions for the identification, assessment, prevention and therapy of human cancers” (priority 2000, published 2002)
